Test [1] has as its system KMS11 (human myeloma cell line). Put plainly: Cell proliferation assay (CellTiter-Glo), KMS11. It is filed as cell-based. Particulars: Homo sapiens, KMS-11; KMS11-Luc cells. In outline: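 EC50 derived from CellTiter-Glo luminescence after 3-day exposure at 37° C. Compound was diluted to 2× in medium and added to an equal volume of cells. KMS11 myeloma cells were plated on assay day at 2000/well in IMDM with 10% FBS and sodium pyruvate.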
In general terms: ATP-based viability assays read luminescence as a measure of living cells.

Another test deals with GSK3β (Homo sapiens, UniProt P49841). Put plainly: GSK3β ATP depletion assay. The test is classed as biochemical. As to conditions: read-out: GSK3b IC50. Put shortly:
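Kinase activity is read as ATP consumption: luciferase luminescence reports the ATP remaining once roughly half of the 2 μM ATP is used. Reaction mix: 5 nM GSK3β, 10 μM b-CREB peptide, 50 mM Tris pH 7.5, 15 mM MgCl2, 1 mM DTT, 0.1% BSA, 2.5% DMSO. Enzyme and peptide are preincubated 15 min before ATP is added.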

The next test concerns the target T1, hERG (Homo sapiens, UniProt Q12809).
T1 construct: host or cells: crude membrane suspension
Put plainly: hERG binding assay ([3H] dofetilide displacement). Particulars: dofetilide displacement; read-out: HERGdof IC50. As for the experimental part:
Compounds of the invention were pipetted into each well of pre-wet 96-well Millipore GF/C filter plates (#MSFCN6B50): 119 μl assay buffer, 1 μl test compound in 100% DMSO (or 100% DMSO only for total binding), 40 μl [3H] dofetilide (12.5 nM, final concentration 2.5 nM; Novartis radioisotope laboratory, East Hanover, N.J., USA, specific activity 15-45 Ci/mmol); 40 μl crude membrane suspension (ca. 15 μg protein). The final concentration of DMSO during the incubation was 0.5%. Incubations were performed at room temperature for 90 min. Non-specific binding (NSB) was defined as the binding remaining in the presence of 25 μM terfenadine (Sigma T9652). The incubations were terminated by rapid filtration on a Millipore filtration manifold, followed by three washes of 200 μA ice-cold assay buffer. The plates were left to dry overnight before adding 40 μA scintillant (MicroScint-20). The plates were then sealed (Sealing Tape SI, Nunc 236366) and read in a Wallac MicroBeta Trilux beta-counter for 1.5 min per well. Compounds were tested as 9-concentration response curves in duplicate, ranging from 30 μM to 3 nM in 1:3 dilution steps. Dilution curves were prepared in 100% DMSO. The reference compound (terfenadine) was tested as an eight-concentration response curve, ranging from 10 μM to 0.6 nM in 1:4 dilution steps.
On the technique in general: The hERG channel carries a current that helps repolarise heart muscle cells.

The target of the next test is PIM2 (Homo sapiens, UniProt Q9P1W9). Briefly: KinaseGlo Pim2 ATP depletion assay. It is filed as biochemical. Put shortly:
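Compound sat 15 min with enzyme and BAD peptide before ATP was added; final levels 5 nM PIM2, 10 μM peptide, 4 μM ATP, 2.5% DMSO, pH 7.5 HEPES buffer with MgCl2, DTT, BSA. Stopped near 50% ATP consumption; remaining ATP measured by luciferase luminescence.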

A further test addresses PIM1 (Homo sapiens, UniProt P11309). Put plainly: KinaseGlo Pim1 ATP depletion assay. The test is classed as biochemical. Put shortly: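 IC50 is derived from residual ATP measured by KinaseGlo Plus luminescence once about half the ATP was consumed. Final conditions were 20 μM ATP, 40 μM BAD peptide and 2.5 nM kinase in HEPES pH 7.5 buffer with MgCl2, DTT and BSA, plus 2.5% DMSO. Compound and enzyme were premixed 15 min before ATP addition.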
In general terms: Kinase-Glo measures the ATP left after a reaction by luminescence.

The target of a further test is PIM3 (Homo sapiens, UniProt Q86V86). Briefly: KinaseGlo Pim3 ATP depletion assay. The test is classed as biochemical. Put shortly:
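Residual ATP was detected by luciferase luminescence once about half had been consumed. The reaction contained 5 nM enzyme, 100 μM BAD peptide (RSRHSSYPAGT) and 40 μM ATP in 50 mM HEPES pH 7.5, 5 mM MgCl2, 1 mM DTT and 0.05% BSA with 2.5% DMSO. Compound and enzyme/peptide were premixed 15 min before ATP.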

For orientation: EC50 means the midpoint of the concentration-response curve. The low end stands for greater potency, the high end for weaker potency. By IC50 is commonly meant the concentration that inhibits the measured activity by half.

T1 sequence (Q12809 whole entry): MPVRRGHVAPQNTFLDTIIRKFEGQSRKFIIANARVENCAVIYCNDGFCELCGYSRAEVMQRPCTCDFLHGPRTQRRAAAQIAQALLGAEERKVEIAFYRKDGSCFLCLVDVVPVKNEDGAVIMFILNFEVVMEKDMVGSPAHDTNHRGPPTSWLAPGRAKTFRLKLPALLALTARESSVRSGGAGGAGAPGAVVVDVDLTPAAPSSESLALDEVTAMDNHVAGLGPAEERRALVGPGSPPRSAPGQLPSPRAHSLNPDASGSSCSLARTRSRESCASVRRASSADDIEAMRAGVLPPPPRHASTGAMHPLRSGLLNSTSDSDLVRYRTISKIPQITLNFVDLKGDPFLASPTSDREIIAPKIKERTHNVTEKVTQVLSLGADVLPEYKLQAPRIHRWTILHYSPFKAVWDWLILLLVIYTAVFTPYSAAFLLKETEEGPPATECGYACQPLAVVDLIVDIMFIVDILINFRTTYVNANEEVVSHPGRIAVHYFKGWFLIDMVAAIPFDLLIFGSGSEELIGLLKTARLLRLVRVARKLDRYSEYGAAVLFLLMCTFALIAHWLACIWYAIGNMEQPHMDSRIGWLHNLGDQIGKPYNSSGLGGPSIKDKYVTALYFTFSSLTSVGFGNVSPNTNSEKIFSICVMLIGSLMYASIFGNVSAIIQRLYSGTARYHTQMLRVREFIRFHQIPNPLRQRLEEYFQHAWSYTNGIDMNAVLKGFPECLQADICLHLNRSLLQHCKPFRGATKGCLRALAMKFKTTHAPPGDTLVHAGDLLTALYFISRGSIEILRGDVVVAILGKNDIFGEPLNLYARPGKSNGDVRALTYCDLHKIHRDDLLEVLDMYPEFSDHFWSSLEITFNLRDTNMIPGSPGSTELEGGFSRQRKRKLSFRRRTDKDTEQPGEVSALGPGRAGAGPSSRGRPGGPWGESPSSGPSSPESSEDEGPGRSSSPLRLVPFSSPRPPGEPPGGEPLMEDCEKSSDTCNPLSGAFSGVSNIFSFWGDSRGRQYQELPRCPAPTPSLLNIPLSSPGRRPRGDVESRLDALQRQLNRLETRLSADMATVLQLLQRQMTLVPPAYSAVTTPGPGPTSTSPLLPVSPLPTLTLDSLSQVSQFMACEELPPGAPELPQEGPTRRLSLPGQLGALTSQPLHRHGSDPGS
Chain of PIM2 (Q9P1W9 whole entry): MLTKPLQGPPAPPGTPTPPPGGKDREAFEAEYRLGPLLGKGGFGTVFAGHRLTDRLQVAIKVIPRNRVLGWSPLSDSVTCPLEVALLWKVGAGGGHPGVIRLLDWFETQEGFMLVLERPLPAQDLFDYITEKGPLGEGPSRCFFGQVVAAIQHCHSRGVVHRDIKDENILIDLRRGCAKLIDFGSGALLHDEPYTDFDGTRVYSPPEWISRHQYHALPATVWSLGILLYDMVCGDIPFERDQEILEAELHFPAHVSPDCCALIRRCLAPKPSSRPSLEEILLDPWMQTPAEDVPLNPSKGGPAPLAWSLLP
Chain of PIM1 (P11309 whole entry): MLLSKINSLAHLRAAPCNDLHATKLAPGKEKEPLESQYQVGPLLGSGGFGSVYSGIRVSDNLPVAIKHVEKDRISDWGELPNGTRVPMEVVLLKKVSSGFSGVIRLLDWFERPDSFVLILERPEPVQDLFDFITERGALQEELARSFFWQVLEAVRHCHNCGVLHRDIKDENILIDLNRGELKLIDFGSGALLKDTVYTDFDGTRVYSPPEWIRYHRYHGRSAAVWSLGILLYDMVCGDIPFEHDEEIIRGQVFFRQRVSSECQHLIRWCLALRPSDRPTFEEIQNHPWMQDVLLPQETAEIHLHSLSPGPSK
Chain of GSK3β (P49841 whole entry, species assumed): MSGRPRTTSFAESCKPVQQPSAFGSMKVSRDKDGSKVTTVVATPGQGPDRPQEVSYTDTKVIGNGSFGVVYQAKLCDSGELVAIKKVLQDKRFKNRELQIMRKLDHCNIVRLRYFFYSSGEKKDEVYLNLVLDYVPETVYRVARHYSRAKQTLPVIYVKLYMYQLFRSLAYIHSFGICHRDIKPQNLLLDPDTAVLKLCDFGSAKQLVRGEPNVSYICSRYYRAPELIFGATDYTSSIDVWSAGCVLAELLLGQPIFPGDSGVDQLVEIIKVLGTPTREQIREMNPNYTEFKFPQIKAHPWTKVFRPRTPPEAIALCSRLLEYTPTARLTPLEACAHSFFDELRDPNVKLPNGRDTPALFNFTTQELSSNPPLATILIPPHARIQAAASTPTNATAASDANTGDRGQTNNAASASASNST

Regarding `C[C@H]1C[C@@H](N)C[C@@H](c2ccncc2NC(=O)c2ccc(F)c(-c3c(F)cccc3F)n2)O1` [Example 124, N-(4-((2S,4R,6S)-4-amino-6-methyltetrahydro-2H-pyran-2-yl)pyridin-3-yl)-6-(2,6-difluorophenyl)-5-fluoropicolinamide], the EC50 in test [1] was 1600 nM. The half-inhibitory concentration (IC50) on GSK3β came out at 3400 nM; on hERG, 3000 nM; against PIM2, 5 nM; at PIM1, 1 nM; against PIM3, 2 nM.

As for `C[C@@H]1O[C@H](c2ccncc2NC(=O)c2ccc(F)c(-c3c(F)cccc3F)n2)C[C@H](O)[C@@]1(C)O` (stereo in doubt) [Example 112, 6-(2,6-difluorophenyl)-N-(4-((2S,4S,5R,6S)-4,5-dihydroxy-5,6-dimethyltetrahydro-2H-pyran-2-yl)pyridin-3-yl)-5-fluoropicolinamide], a half-maximal effect in test [1] (EC50) was put at 1200 nM. Also, the IC50 is 163 nM at GSK3β; above 30000 nM at hERG; 3 nM against PIM2; 1 nM against PIM1; 2 nM at PIM3.

In test [1], `C[C@H]1C[C@@H](O)C[C@@H](c2ccncc2NC(=O)c2ccc(F)c(-c3c(F)cccc3F)n2)O1` (stereo in doubt) [Example 128, 6-(2,6-difluorophenyl)-5-fluoro-N-(4-((2S,4R,6S)-4-hydroxy-6-methyltetrahydro-2H-pyran-2-yl)pyridin-3-yl)picolinamide] registered a concentration giving a half-maximal response (EC50) of 9100 nM. In addition, the IC50 on GSK3β was 276 nM; on hERG, above 30000 nM; on PIM2 it was 28 nM; at PIM1, 1 nM; on PIM3 it was 6 nM.

The molecule `[2H][C@@H]1[C@@H](O)[C@H](O)[C@@H](CC)O[C@@]1([2H])c1ccncc1NC(=O)c1ccc(F)c(-c2c(F)cccc2F)n1` [Example 54, 6-(2,6-difluorophenyl)-N-(4-((2R,4R,5S,6R)-6-ethyl-4,5-dihydroxy-2,3-didueterotetrahydro-2H-pyran-2-yl)pyridin-3-yl)-5-fluoropicolinamide] gave a concentration for a half-maximal effect (EC50) in test [1] of 2100 nM. For the same molecule, the 50% inhibitory concentration (IC50) on GSK3β was 131 nM; on hERG, above 30000 nM; at PIM2, 3 nM; on PIM1, 1 nM; at PIM3, 2 nM.

For the molecule `O=C(Nc1cnccc1[C@H]1C[C@@H](O)CCO1)c1ccc(F)c(-c2c(F)cccc2F)n1` [Example 129, 6-(2,6-difluorophenyl)-5-fluoro-N-(4-((2R,4S)-4-hydroxytetrahydro-2H-pyran-2-yl)pyridin-3-yl)picolinamide], in test [1], the EC50 is above 10000 nM. Also, the IC50 was 361 nM on GSK3β; above 30000 nM at hERG; 147 nM against PIM2; 2 nM on PIM1; 13 nM on PIM3.

In the case of `CC[C@]1(O)[C@H](C)O[C@H](c2ccncc2NC(=O)c2ccc(F)c(-c3c(F)cccc3F)n2)C[C@@H]1O` (stereo in doubt) [Example 76, 6-(2,6-difluorophenyl)-N-(4-((2S,4S,5R,6S)-5-ethyl-4,5-dihydroxy-6-methyltetrahydro-2H-pyran-2-yl)pyridin-3-yl)-5-fluoropicolinamide], the 50% effective concentration (EC50) in test [1] amounted to 200 nM. Besides, the concentration for half-maximal inhibition (IC50) is 100 nM on GSK3β; above 30000 nM at hERG; 2 nM against PIM2; 1 nM on PIM1; 1 nM against PIM3.

`C[C@H]1O[C@@H](c2ccncc2NC(=O)c2cncc(-c3ccccc3)n2)C[C@@H](O)[C@]1(C)O` [Example 85, N-(4-((2R,4R,5S,6R)-4,5-dihydroxy-5,6-dimethyltetrahydro-2H-pyran-2-yl)pyridin-3-yl)-6-phenylpyrazine-2-carboxamide] gave a half-maximal effective concentration (EC50) in test [1] above 10000 nM. In addition, the IC50 was 257 nM on GSK3β; above 30000 nM at hERG; 20600 nM against PIM2; 221 nM against PIM1; 564 nM on PIM3.

Consider `CC1C(c2ccncc2NC(=O)c2ccc(F)c(-c3c(F)cccc3F)n2)OC(C)[C@H](O)C1O` (stereo in doubt) [Example 65, 6-(2,6-difluorophenyl)-N-(4-((2R,3S,4R,5R,6R)-4,5-dihydroxy-3,6-dimethyltetrahydro-2H-pyran-2-yl)pyridin-3-yl)-5-fluoropicolinamide], for which, in test [1], the response was half-maximal at 8300 nM (EC50). For the same molecule, the half-inhibitory concentration (IC50) at GSK3β is 51 nM; at hERG, above 30000 nM; on PIM2, 46 nM; at PIM1 it was 1 nM; against PIM3 it was 3 nM.

Take `C[C@@H]1O[C@H](c2ccncc2NC(=O)c2ccc(F)c(-c3c(F)cccc3F)n2)C[C@H](N)[C@H]1O` [Example 115, N-(4-((2S,4S,5R,6S)-4-amino-5-hydroxy-6-methyltetrahydro-2H-pyran-2-yl)pyridin-3-yl)-6-(2,6-difluorophenyl)-5-fluoropicolinamide]: in test [1], a half-maximal response (EC50) required 1300 nM. Moreover, the IC50 came out at 225 nM at GSK3β; 22000 nM at hERG; 5 nM on PIM2; 1 nM against PIM1; 2 nM against PIM3.

The molecule `O=C(Nc1cnccc1[C@H]1C[C@@H](O)[C@H](O)[C@@H](CCl)O1)c1ccc(F)c(-c2c(F)cccc2F)n1` [Example 56, N-(4-((2R,4R,5S,6S)-6-(chloromethyl)-4,5-dihydroxytetrahydro-2H-pyran-2-yl)pyridin-3-yl)-6-(2,6-difluorophenyl)-5-fluoropicolinamide] registered a concentration giving a half-maximal response (EC50) in test [1] of 8300 nM. The half-maximal inhibitory concentration (IC50) was 73 nM at GSK3β; above 30000 nM at hERG; 3 nM against PIM2; 1 nM at PIM1; 2 nM at PIM3.

On to `C[C@@H]1C[C@H](N)C[C@H](c2ccncc2NC(=O)c2csc(-c3c(F)cccc3F)n2)O1` [Example 121, N-(4-((2R,4S,6R)-4-amino-6-methyltetrahydro-2H-pyran-2-yl)pyridin-3-yl)-2-(2,6-difluorophenyl)thiazole-4-carboxamide], for which a half-maximal effect in test [1] (EC50) was put at 4700 nM. In addition, the IC50 on GSK3β is 3230 nM; on hERG it was 10000 nM; on PIM2 it was 795 nM; on PIM1, 9 nM; against PIM3, 44 nM.

Regarding `C[C@H]1C[C@@H](O)C[C@@H](c2ccncc2NC(=O)c2csc(-c3c(F)cccc3F)n2)O1` (stereo in doubt) [Example 127, 2-(2,6-difluorophenyl)-N-(4-((2S,4R,6S)-4-hydroxy-6-methyltetrahydro-2H-pyran-2-yl)pyridin-3-yl)thiazole-4-carboxamide], the EC50 in test [1] was 9600 nM. Also, the IC50 on GSK3β was 25 nM; at hERG, above 30000 nM; on PIM2, 324 nM; against PIM1, 1 nM; at PIM3 it was 19 nM.

In test [1], `O=C(Nc1cnccc1[C@@H]1C[C@H](O)CC2(CC2)O1)c1ccc(F)c(-c2c(F)cccc2F)n1` [Example 60, 6-(2,6-difluorophenyl)-5-fluoro-N-(4-((5S,7S)-7-hydroxy-4-oxaspiro[2.5]octan-5-yl)pyridin-3-yl)picolinamide] had a half-maximal effective concentration (EC50) above 10000 nM. The 50% inhibitory concentration (IC50) at GSK3β is 92 nM; at hERG, above 30000 nM; at PIM2 it was 28 nM.

`CC[C@]1(O)[C@H](O)C[C@H](c2ccncc2NC(=O)c2nc(-c3c(F)cccc3F)c(F)cc2N)O[C@@H]1C` [Example 27, 3-amino-6-(2,6-difluorophenyl)-N-(4-((2R,4R,5S,6R)-5-ethyl-4,5-dihydroxy-6-methyltetrahydro-2H-pyran-2-yl)pyridin-3-yl)-5-fluoropicolinamide]: the 50% inhibitory concentration (IC50) at GSK3β was 250 nM; on hERG, above 30000 nM; on PIM2, 1 nM; at PIM1, 1 nM; against PIM3, 1 nM.
